Like-named read-outs stand apart in the source and are kept apart here.

Data set [1] is described as follows: In vivo pharmacokinetic interaction study in rats (plasma). Details: species or system rat. As to conditions: for AUC(0-inf) / AUC(0-t) / Cmax / MRT / Tmax / half-life / CL renal: male, Sprague-Dawley, rat, po, 2 mg/kg, oral amifampridine 2 mg/kg; for AUC(0-inf) / AUC(0-t) / Cmax / MRT / Tmax / half-life: plasma; for CL renal: urine and plasma, renal clearance. The procedure: Male Sprague Dawley (SD) rats (7–8 weeks old, 260–330 g) were purchased from Orient Bio, Inc. (Seongnam, Korea). The rats were housed under a light/dark cycle for 12 h and were left for at least a week before the experiment to adapt to the laboratory environment. Water and food were provided ad libitum. The rats were fasted overnight with free access to water prior to pharmacokinetic studies. The protocols for animal experiments were approved in accordance with the Guidelines for Animal Care and Use of Gachon University (approval no.: GIACUC-R2021006; 13 May 2021).
The rats were anesthetized with a mixture of Rompun and Zoletil by intramuscular injection and received an intraperitoneal injection of vehicle (40:60 PEG400:normal saline; n = 8) or 100 mg/kg acetaminophen (n = 8). After 10 min, 2 mg/kg amifampridine (dissolved in saline) was administered orally. Blood samples were collected at 0, 5, 15, 30, 60, 90, 120, 240, and 360 min and centrifuged at 14,000 rpm for 15 min at 4 °C. For analysis of amifampridine and 3-N-acetylamifampridine, 50 μL of plasma samples was mixed with 100 μL IS solution (5 ng/mL ondansetron in acetonitrile) and the mixture was vortexed followed by centrifugation at 14,000 rpm for 15 min at 4 °C. For the analysis of acetaminophen, 200 μL of IS (tolbutamide 200 ng/mL in methanol) was added to the plasma samples which were diluted 10-fold using the blank plasma and then vortexed for one minute. Further, the samples were centrifuged at 14,000 rpm for 15 min at 4 °C. The supernatants were transferred to LC vials for quantification.
Non-compartment analysis (NCA) was performed to calculate the pharmacokinetic parameters for the in vivo study using WinNonlin (Version 8.3. (Pharsight Corporation, Mountain View, CA, USA)). The area under the plasma concentration–time curve from time 0 to infinity (AUCinf) was calculated by the linear trapezoidal method and standard extrapolation using λ, where λ represents the slope of the terminal phase in a semi-log graph for plasma concentration–time profiles. Renal clearance (CLr) was determined by dividing the accumulated amount of drug excreted in the urine by AUCinf.

Data set [2] is described as follows: Urinary excretion of amifampridine and 3-N-acetylamifampridine in rats. The data set is classed as in vivo, rat. The conditions noted are these: for amount excreted into the urine for up to 4 h: oral amifampridine 2 mg/kg. The protocol: Urine samples were collected at intervals of 0–4, 4–8, and 8–24 h after the administration of amifampridine to control and acetaminophen-treated rats (n = 6), as described above, and were diluted 500-fold with potassium phosphate buffer. An amount of 200 μL of IS was then added to the samples and vortexed for a minute. After centrifugation at 14,000 rpm for 15 min at 4 °C, the supernatant was transferred into vials for quantification of amifampridine and 3-N-acetylamifampridine.

The nature of data set [3]: Tissue distribution of amifampridine and 3-N-acetylamifampridine in rats. The format is in vivo, rat. The conditions noted are these: rat, 60 min after oral amifampridine 2 mg/kg. The procedure: To investigate the effects of acetaminophen on the tissue distribution of amifampridine and 3-N-acetylamifampridine, rats were sacrificed at 60 min after administration of amifampridine in control and acetaminophen-treated rats (n = 6) as mentioned above, and the tissues, including liver, kidney, heart, lungs, spleen, brain, and muscle tissues, were obtained. Tissue samples were homogenized using a Wheaton^TM Dounce tissue grinder (Wheaton Millipore, Billerica, MA, USA) after adding a three-fold volume of PBS. An amount of 100 μL of tissue homogenates was transferred to the tube and 200 μL of IS solution was then added and vortexed followed by centrifugation at 14,000 rpm for 15 min at 4 °C. The supernatants were transferred to LC vials for quantification. For muscle samples, the supernatant was concentrated using a desiccator and reconstituted with the mobile phase solvent.

Details of data set [4]: method as in earlier work. As to conditions: metabolite of amifampridine; cited from earlier work.
The conditions of data set [5]: humans, cited from earlier work.
For data set [6], the system named is NAT2. The conditions noted are these: previous report; cited from earlier work.
Data set [7] has as its target T1, NAT2 (Homo sapiens, UniProt P11245).
T1 construct: in vitro using S9 fractions obtained from human, rat, and mouse livers; from tissue; host or cells: human liver S9 fraction
T1 sequence (P11245 1-290): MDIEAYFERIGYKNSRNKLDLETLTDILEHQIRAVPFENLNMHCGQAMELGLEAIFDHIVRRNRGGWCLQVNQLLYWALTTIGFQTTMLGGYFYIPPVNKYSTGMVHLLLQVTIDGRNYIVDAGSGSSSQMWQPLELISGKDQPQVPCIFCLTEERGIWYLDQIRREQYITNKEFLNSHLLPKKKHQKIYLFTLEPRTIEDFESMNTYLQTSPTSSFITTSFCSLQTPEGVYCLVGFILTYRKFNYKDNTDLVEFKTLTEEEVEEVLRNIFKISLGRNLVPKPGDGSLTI
Description: Inhibition of amifampridine acetylation to 3-N-acetylamifampridine by NAT2 inhibitors, human liver S9 fraction. The data set is classed as biochemical. As to conditions: amifampridine 50 μM, 15 min.
Description: Then, the NAT2 inhibitors (final concentrations of 0, 1, 5, 10, 50, 100, 500, 1000, and 5000 μM) and amifampridine (final concentration of 50 μM) were added to the reaction mixture and incubated for 15 min at 37 °C. An amount of 50 μL of the mixture was then transferred into the tube and mixed with 100 μL of IS (5 ng/mL ondansetron in acetonitrile). The mixture was vortexed and centrifuged at 14,000 rpm for 15 min at 4 °C. The supernatant was transferred into vials for HPLC-MS/MS analysis and the concentration of 3-N-acetylamifampridine was determined.

Where [8] appears, read: acetaminophen-treated group (100 mg/kg ip).

The term AUC(0-inf) denotes total exposure, with the tail of the curve extrapolated. A lower AUC(0-inf) goes with low exposure. As a reminder, the AUC(0-t) is exposure summed from dosing to a finite time, without extrapolation to infinity. The term Cmax denotes the maximum level reached in the sampled fluid or tissue. As usually defined, the MRT is the average time that molecules of a dose stay in the body. For orientation: Tmax means the time from dosing to the highest level. In general, half-life refers to the time in which the quantity being followed falls by half. In the case of `CC(=O)Nc1cnccc1N` [3-N-acetylamifampridine], in data set [1] (acetaminophen-treated vs control rats), the “change of AUCinf after pre-treatment with acetaminophen” value is given as “not significantly altered”. Besides, the “decrease in Cmax” value in data set [1] (after pre-treatment with acetaminophen vs control, p < 0.05) turned out to be 27.11%. In data set [1] (after pretreatment with acetaminophen), the “decrease of AUCm/AUCp” value is 65%. Further, the AUC(0-inf) in data set [1] (setting [8]) and in data set [1] (control group) was 3690 ng·h/mL each time. Besides, the values for the AUC(0-t) in data set [1] (setting [8]) and in data set [1] (control group) were 3010 ng·h/mL and 3410 ng·h/mL, respectively. In addition, the Cmax amounted to 880 ± 260 ng/mL in data set [1] (setting [8]) and 1210 ± 240 ng/mL in data set [1] (control group). Moreover, the MRT in data set [1] (setting [8]) is 3.84 h; in data set [1] (control group) it was 2.65 h. Further, the Tmax in data set [1] (setting [8]) was 1.5 h; in data set [1] (control group) it was 1.31 h. Besides, the half-life in data set [1] (setting [8]) worked out at 143 ± 54.6 min; in data set [1] (control group), 84.9 ± 21.6 min. For the same compound, the CL renal in data set [1] (setting [8]) came to 3.58 ± 0.6 mL/min; in data set [1] (control group), 2.94 ± 1.55 mL/min. Further, the “total amount excreted via urine for up to 24 h, difference between groups” value in data set [2] (control vs acetaminophen-treated rats) is given as “not significantly different”. In addition, the “amount excreted into the urine for up to 4 h” value in data set [2] (after pre-treatment with acetaminophen) worked out at 12.2%; in data set [2] (control rats) it was 49.9%. Also, the Kp at 1 h worked out at 0.2 ± 0.2 in data set [3] (Sprague Dawley, brain, acetaminophen 100 mg/kg, read-out: Tissue partition coefficient (Kp), Brain); 0.2 ± 0.2 in data set [3] (Sprague Dawley, brain, control, read-out: Tissue partition coefficient (Kp), Brain); 1.6 ± 0.4 in data set [3] (Sprague Dawley, heart, acetaminophen 100 mg/kg, read-out: Tissue partition coefficient (Kp), Heart); 1.8 ± 0.5 in data set [3] (Sprague Dawley, heart, control, read-out: Tissue partition coefficient (Kp), Heart); 2.7 ± 0.9 in data set [3] (Sprague Dawley, lungs, acetaminophen 100 mg/kg, read-out: Tissue partition coefficient (Kp), Lungs); 2.9 ± 0.5 in data set [3] (Sprague Dawley, lungs, control, read-out: Tissue partition coefficient (Kp), Lungs). Besides, the Kp at 1 h in data set [3] (Sprague Dawley, spleen, acetaminophen 100 mg/kg, read-out: Tissue partition coefficient (Kp), Spleen) is 3 ± 0.9; in data set [3] (Sprague Dawley, spleen, control, read-out: Tissue partition coefficient (Kp), Spleen), 3.3 ± 0.7; in data set [3] (male, Sprague-Dawley, kidney, acetaminophen 100 mg/kg, read-out: Tissue partition coefficient (Kp), Kidney), 5.1 ± 1.6; in data set [3] (male, Sprague-Dawley, kidney, control, read-out: Tissue partition coefficient (Kp), Kidney) it was 16.6 ± 12.4; in data set [3] (male, Sprague-Dawley, liver, acetaminophen 100 mg/kg, read-out: Tissue partition coefficient (Kp), Liver), 3 ± 0.8; in data set [3] (male, Sprague-Dawley, liver, control, read-out: Tissue partition coefficient (Kp), Liver), 6.5 ± 5. For the same compound, the Kp at 1 h in data set [3] (male, Sprague-Dawley, muscle, acetaminophen 100 mg/kg, read-out: Tissue partition coefficient (Kp), Muscle) is 0.9 ± 0.3; in data set [3] (male, Sprague-Dawley, muscle, control, read-out: Tissue partition coefficient (Kp), Muscle) it was 0.9 ± 0.2. In addition, the pharmacological activity result in data set [4] was “pharmacologically inactive”. Also, the “dose excreted via the urine within 24 h” value in data set [5] (after administration of amifampridine) is reported as 74.0–81.7%. Also, the elimination half-life in data set [5] is listed as around 4 h.

One may read the IC50 as the concentration at which inhibition is half-maximal. As to `COc1cc(C(C)=O)ccc1O` [apocynin], the figures for the IC50 with NAT2 [6] and against NAT2 [7] were 0.69 mM and 0.843 ± 0.16 mM, respectively.

For `CN/C(=N/CCSCc1nc[nH]c1C)NC#N` [cimetidine], the half-maximal inhibitory concentration (IC50) in the data set with NAT2 [6] was 2.06 mM; against NAT2 [7] it was 2.45 ± 0.258 mM.

The values above are taken from PMC10221159, “Investigation of N-Acetyltransferase 2-Mediated Drug Interactions of Amifampridine: In Vitro and In Vivo Evidence of Drug Interactions with Acetaminophen” (Pharmaceutics, 2023).
